Reference: patent US6800637B2, “Antidepressant indolealkyl derivatives of heterocycle-fused benzodioxan methylamines” (Wyeth, priority 2002, dated 2004)
Where two headings read alike, the source gives them in different places.

Key:
[1] = target: T1, serotonin transporter (Rattus norvegicus, UniProt P31652); assay: Displacement of 3H-paroxetine from male rat frontal cortical membranes (serotonin transporter affinity); format: binding; details: read-out: 5-HT Transporter Affinity KI
T1 construct: displace ^3H-paroxetine from male rat frontal cortical membranes; from tissue; host or cells: male rat frontal cortex membranes

[2] = target: T2, human 5-HT1A receptors (Homo sapiens, UniProt P08908); assay: Displacement of [3H] 8-OHDPAT from 5-HT1A receptor, CHO cells stably transfected with human 5-HT1A receptors; format: binding; details: CHO cells with human 5-HT1A receptors, read-out: 5-HT1A Receptor Affinity KI
T2 construct: expressed in transfected cells; host or cells: CHO cells
T2 sequence (P08908 1-422): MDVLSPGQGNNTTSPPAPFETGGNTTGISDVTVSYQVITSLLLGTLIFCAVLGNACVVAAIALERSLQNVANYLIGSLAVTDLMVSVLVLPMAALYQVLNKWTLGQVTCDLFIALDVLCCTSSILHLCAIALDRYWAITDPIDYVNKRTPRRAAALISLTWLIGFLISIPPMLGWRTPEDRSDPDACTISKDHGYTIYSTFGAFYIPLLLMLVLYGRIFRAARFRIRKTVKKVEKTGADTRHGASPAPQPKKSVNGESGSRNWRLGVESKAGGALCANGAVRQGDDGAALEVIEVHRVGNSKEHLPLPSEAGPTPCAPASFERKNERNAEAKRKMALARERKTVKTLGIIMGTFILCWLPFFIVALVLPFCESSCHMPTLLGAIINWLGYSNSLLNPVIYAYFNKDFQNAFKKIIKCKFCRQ
Excerpt: High affinity for the serotonin 5-HT1A receptor was established by testing the claimed compound's ability to displace [^3H] 8-OHDPAT (dipropylaminotetralin) from the 5-HT1A serotonin receptor following a modification of the procedure of Hall et al., J. Neurochem. 44, 1685 (1985) which utilizes CHO cells stably transfected with human 5-HT1A receptors.

[3] = target: T3, cloned human 5HT1A receptors (Homo sapiens, UniProt P08908); assay: 35S-GTPγS binding assay, membranes containing cloned human 5HT1A receptors; format: biochemical; details: for IC50: antagonist potency, reversal of the effects of the standard agonist 8-OHDPAT, read-out: 5-HT1A Function IC50
T3 construct: expressed in transfected cells
T3 sequence (P08908 1-422): T2 sequence (P08908 1-422)
Protocol: Antagonist activity at 5-HT1A receptors was established by using a ^35S-GTPγS binding assay similar to that used by Lazareno and Birdsall (Br. J. Pharmacol. 109: 1120, 1993), in which the test compound's ability to affect the binding of ^35S-GTPγS to membranes containing cloned human 5HT1A receptors was determined. Agonists produce an increase in binding whereas antagonists produce no increase but rather reverse the effects of the standard agonist 8-OHDPAT. The test compound's maximum inhibitory effect is represented as the Imax, while its potency is defined by the IC50.

[4] = maximum inhibitory effect, read-out: 5-HT1A Function (Imax)

T1 sequence (P31652 whole entry): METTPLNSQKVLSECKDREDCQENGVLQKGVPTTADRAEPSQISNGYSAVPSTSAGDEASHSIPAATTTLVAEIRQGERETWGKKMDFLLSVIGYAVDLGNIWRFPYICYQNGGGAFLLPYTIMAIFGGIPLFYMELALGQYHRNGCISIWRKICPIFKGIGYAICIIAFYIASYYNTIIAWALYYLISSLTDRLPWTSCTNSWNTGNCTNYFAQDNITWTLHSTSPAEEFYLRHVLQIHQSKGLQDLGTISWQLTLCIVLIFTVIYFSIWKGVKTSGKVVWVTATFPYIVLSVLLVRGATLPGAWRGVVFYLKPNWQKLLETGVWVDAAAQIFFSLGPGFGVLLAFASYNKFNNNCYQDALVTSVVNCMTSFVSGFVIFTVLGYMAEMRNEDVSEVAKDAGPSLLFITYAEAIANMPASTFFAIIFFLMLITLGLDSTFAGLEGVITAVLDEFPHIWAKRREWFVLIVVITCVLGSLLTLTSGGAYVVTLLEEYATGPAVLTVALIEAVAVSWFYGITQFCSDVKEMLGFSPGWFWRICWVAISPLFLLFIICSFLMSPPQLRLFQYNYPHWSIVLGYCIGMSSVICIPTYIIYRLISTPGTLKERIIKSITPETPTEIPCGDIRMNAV

Ki [1] | Ki [2] | IC50 [3] | 5-HT1A Function (Imax) ([3]; maximum inhibitory effect) | Emax [3, 4] | EC50 ([3]; given as EC50, read-out: 5-HT1A Function EC50) | Emax ([3]; given as Emax, read-out: 5-HT1A Function Emax) | SMILES
1 nM | 1.03 nM | 507 nM |  | 100% |  |  | Fc1ccc2[nH]cc(CCCNC[C@H]3COc4ccc5ncccc5c4O3)c2c1 [Example 14, N-(2,3-Dihydro-[1,4]dioxino[2,3-f]quinolin-2-ylmthyl)-N-[3-(5-fluoro-1H-indol-3-yl)propyl]amine]
1.6 nM | 5.16 nM | 412 nM |  | 100% |  |  | CN(CCCc1c[nH]c2ccc(F)cc12)CC1COc2ccc3ncccc3c2O1 (centres unmarked) [Example 15, N-(2,3-Dihydro-[1,4]dioxino[2,3-f]quinolin-2-ylmethyl)-N-[3-(5-fluoro-1H-indol-3-yl)propyl]-N-methylamine]
1.8 nM | 2.51 nM | 125 nM |  | 100% |  |  | Cc1ccc2c3c(ccc2n1)OCC(CN(C)CCCc1c[nH]c2c(F)cc(F)cc12)O3 (centres unmarked) [Example 16, N-[3-(5,7-Difluoro-1H-indol-3-yl)propyl]-N-methyl-N-(8-methyl-2,3-dihydro-[1,4]dioxino[2,3-f]quinolin-2-ylmethyl)amine]
46 nM | 0.63 nM | 52 nM |  | 78% |  |  | Cc1ccc2c3c(ccc2n1)OC[C@H](CNCCc1coc2ccccc12)O3 [Example 17]
6.6 nM | 0.35 nM | 10.4 nM |  | 59.3% |  |  | Cc1ccc2c3c(ccc2n1)OC[C@H](CNCCCc1coc2ccccc12)O3 [Example 18]
5.5 nM | 0.28 nM |  |  |  |  |  | Cc1ccc2c3c(ccc2n1)OCC(CNCCCCc1coc2ccccc12)O3 (centres unmarked) [Example 28, N-[4-(1-Benzofuran-3-yl)butyl]-N-(8-methyl-2,3-dihydro-[1,4]dioxino[2,3-f]quinolin-2-ylmethyl)amine]
0.24 nM | 21 nM |  |  |  |  |  | Cc1ccc2c3c(ccc2n1)OCC(CN(C)CCCCc1c[nH]c2ccc(C#N)cc12)O3 (centres unmarked) [Example 41, 3-{4-[Methyl-(8-methyl-2,3-dihydro-[1,4]dioxino[2,3-f]quinolin-2-ylmethyl)-amino]-butyl}-1H-indole-5-carbonitrile]
2.75 nM | 36 nM |  |  |  |  |  | Cc1ccc2c3c(ccc2n1)OCC(CN(C)CCCc1cn(C)c2ccc(F)cc12)O3 (centres unmarked) [Example 42, [3-(5-Fluoro-1-methyl-1H-indol-3-yl)-propyl]-methyl-(8-methyl-2,3-dihydro-[1,4]dioxino[2,3-f]quinolin-2-ylmethyl)-amine]
 | 2.08 nM |  |  |  | 526 nM | 97% | CCN(CCCCc1coc2ccccc12)C[C@H]1COc2ccc3nc(C)ccc3c2O1 [Example 52, N-[4-(1-Benzofuran-3-yl)butyl]-N-ethyl-N-{[(2S)-8-methyl-2,3-dihydro[1,4]dioxino[2,3-f]quinolin-2-yl]methyl}amine]

Second part, the molecule before the results:

SMILES | Ki [1] | Ki [2] | IC50 [3] | 5-HT1A Function (Imax) ([3]; maximum inhibitory effect) | Emax [3, 4] | EC50 ([3]; given as EC50, read-out: 5-HT1A Function EC50) | Emax ([3]; given as Emax, read-out: 5-HT1A Function Emax)
Cc1ccc2c3c(ccc2n1)OCC(CNC(C)CCc1c[nH]c2ccc(F)cc12)O3 (single isomer, unassigned; isomer a) [Example 11 Isomer A] | 1.62 nM | 1.68 nM | 27.8 nM | 78.3% |  |  | 
Cc1ccc2c3c(ccc2n1)OCC(CNC(C)CCc1c[nH]c2ccc(F)cc12)O3 (single isomer, unassigned; isomer b) [Example 11 Isomer B] | 0.43 nM | 4.65 nM |  |  |  |  | 
COc1ccc2[nH]cc(CCNCC3COc4ccc5nc(C)ccc5c4O3)c2c1 (centres unmarked) [Example 1] | 31 nM | 2.03 nM | 88.6 nM |  | 80.3% |  | 
Cc1ccc2c3c(ccc2n1)OC[C@H](CNCCc1c[nH]c2ccc(Cl)cc12)O3 [Example 2] | 34 nM | 19.9 nM | 49.4 nM |  | 37% |  | 
Cc1ccc2c3c(ccc2n1)OC[C@H](CNCCCc1c[nH]c2ccc(F)cc12)O3 [Example 3, N-[3-(5-Fluoro-1H-Indolyl-3-yl)propyl]-N-(8-methyl-2,3-dihydro-[1,4]dioxino[2,3-f]quinolin-2-ylmethyl)amine] | 0.41 nM | 0.27 nM | 10.6 nM |  | 98.7% |  | 
Cc1ccc2c3c(ccc2n1)OCC(CNCCc1c[nH]c2ccc(F)cc12)O3 (centres unmarked) [Example 4, N-[2-(5-Fluoro-1H-indol-3-yl)ethyl]-N-(8-methyl-2,3-dihydro-[1,4]dioxino[2,3-f]quinolin-2-ylmethyl)amine] | 47 nM | 4.19 nM | 909 nM |  | 58% |  | 
CCc1ccc2c3c(ccc2n1)OCC(CNCCCc1c[nH]c2ccc(F)cc12)O3 (centres unmarked) [Example 5, N-[3-(5-Fluoro-1H-Indol-3-yl)propyl]-N-(8-ethyl-2,3-dihydro-[1,4]dioxino[2,3-f]quinolin-2-ylmethyl)amine] | 0.96 nM | 0.64 nM | 92.5 nM |  | 76.8% |  | 
Cc1ccc2c3c(ccc2n1)OCC(CNCCCc1c[nH]c2ccccc12)O3 (centres unmarked) [Example 6, N-[3-(1H-Indol-3-yl)propyl]-N-(8-methyl-2,3-dihydro-[1,4]dioxino[2,3-f]quinolin-2-ylmethyl)amine] | 3.57 nM | 0.39 nM | 31.3 nM |  | 86.6% |  | 
Cc1ccc2c3c(ccc2n1)OCC(CN(C)CCCc1c[nH]c2ccc(F)cc12)O3 (centres unmarked) [Example 7, N-[3-(5-Fluoro-1H-indol-3-yl)propyl]-N-methyl-N-(8-methyl-2,3-dihydro-[1,4]dioxino[2,3-f]quinolin-2-ylmethyl)amine] | 0.38 nM | 3.43 nM | 73.9 nM |  | 100% |  | 
Cc1ccc2c3c(ccc2n1)OCC(CNCCCc1c[nH]c2c(F)cccc12)O3 (centres unmarked) [Example 8, N-[3-(7-Fluoro-1H-indol-3-yl)propyl]-N-(8-methyl-2,3-dihydro-[1,4]dioxino[2,3-f]quinolin-2-ylmethyl)amine] | 2.07 nM | 0.22 nM | 25.8 nM |  | 94.1% |  | 
Cc1ccc2c3c(ccc2n1)OCC(CNCCCCc1c[nH]c2ccccc12)O3 (centres unmarked) [Example 9, N-[4-(1H-indol-3-yl)butyl]-N-(8-methyl-2,3-dihydro-[1,4]dioxino[2,3-f]quinolin-2-ylmethyl)amine] | 4.7 nM | 0.46 nM | 23.7 nM |  | 95.2% |  | 
Cc1ccc2c3c(ccc2n1)OCC(CNCCCCc1c[nH]c2ccc(F)cc12)O3 (centres unmarked) [Example 10, N-[4-(5-Fluoro-1H-indol-3-yl)butyl]-N-(8-methyl-2,3-dihydro-[1,4]dioxino[2,3-f]quinolin-2-ylmethyl)amine] | 1.29 nM | 1.78 nM | 71.1 nM |  | 61.5% |  | 
Cc1ccc2c3c(ccc2n1)OCC(CNCCCc1cn(C)c2ccc(F)cc12)O3 (centres unmarked) [Example 12, N-[3-(5-Fluoro-1-methyl-1H-indol-3-yl)propyl]-N-(8-methyl-2,3-dihydro-[1,4]dioxino[2,3-f]quinolin-2-ylmethyl)amine] | 13 nM | 1.55 nM | 138 nM |  | 81.6% |  | 
Cc1ccc2c3c(ccc2n1)OCC(CNCCCc1c[nH]c2c(F)cc(F)cc12)O3 (centres unmarked) [Example 13, N-[3-(5,7-Difluoro-1H-indol-3-yl)propyl]-N-(8-methyl-2,3-dihydro-[1,4]dioxino[2,3-f]quinolin-2-ylmethyl)amine] | 1.05 nM | 0.32 nM | 64.6 nM |  | 95% |  | 
